Measurements taken from US5147652A, “Autobiotics and their use in eliminating nonself cells in vivo” (priority 1990, dated 1992).

Assays:
Candida albicans [1] = assay: Effect on proliferation of Candida albicans, disk on agar surface (A); assay type: cell-based
Method: Stock solutions of the following test compounds were dissolved in physiological saline. However DOV was dissolved in water.
C. albicans isolated from clinical specimens were density grown in SubbaRow's broth at 35 C. A loopful of yeast suspension was evenly spread on the surface of Muller-Hilton agar plates (7cm diameter) with a sterile cotton applicator and incubated for 12 hours. The test compounds were placed on the surface of the sensidisks (Whatmann No. 17 paper, 6mm diameter) in a volume of 5, 10, 20, and 50 μliter of stock solutions and made up a final volume of 50 μliter with saline. The plates then were placed and kept at 37 C for 24 hours (*) and 48 hours (**) when the diameters of the inhibitory rings were recorded. Photographs were also taken of plates.

Candida albicans [2] = conditions: cited from earlier work
C. albicans = assay: Inhibition of C. albicans, yeast mixed in agar (B); assay type: cell-based; conditions: 30 μl test, 24 hrs incubation; mean of twenty assays
Method: Stock cultured C. albicans is used. The yeast isolated from clinical specimens was stock cultured (subcultured) on semisolid trypsoy agar plates. […] Thus, from the subculture(s), transfers were made every 48 hrs into SRB to keep the experimental strain available for assays. From the 24-48 hrs SRB cultures a loopful of turbid solutions was transferred and spread on either (a) trypsoy agar plates or (b) EBM agar plates which were fortified with horse and calf serum and incubated at 36 C for 24-48 hrs. […] Plate (a) was selected for growth inhibition assay(s) with ketoaldehydes.
One milliliter of SRB culture (24-48 hrs growth) was mixed with 10 ml trypsoy agar, warmed to 38 C and rapidly poured into sterile Petri dishes (7cm), spread evenly and allowed to solidify. The selected test compounds (in 30 μl total volume, as above) were placed in sensidisks (6mm dia, Whatman #17) on the infected agar surface. The plates were incubated for 24 hrs at 37 C. The extent of inhibition, clear zones around the sensi disks, were measured and recorded. In some cases contact photorecords were also made with the plates. (The dark zones on the photos are the inhibition (no growth) areas of C. albicans.
These assays were aimed at finding the variations of inhibition due to (i) the variable amount of yeast in (ii) a three dimensional area of the plates. Each result is the statistical mean of twenty assays on different batches of C. albicans.

[3] = tested on: blood coagulation (citrated human blood plasma); assay: Blood coagulation (i), ketoaldehyde kept 1-2 seconds before plasma added; assay type: biochemical; conditions: for d % (clotting activity) / coagulation time / clot: 1-2 seconds contact; for d % (clotting activity): control 22; for coagulation time: control 24; for clot: control hard; for anti-coagulant effectiveness: summary of Example 9
Method: (§1) 200 microliter thromboplastin (Ortho) was mixed with 10 microliter ketoaldehyde (KA) stock solution. Then 100 microliter citrated human blood plasma was added and the clot formation time (in seconds) was measured on a Fibrionometer. The effect of the ketoaldehyde on coagulation time was evaluated by comparing the clotting time of the KA treated plasma with the untreated control. The result (d%) was read from a special chart expressing the clotting activity.
(§2) All measurements were run in triplicates. The assay was run at 37 C (waterbath) in special tubes and all solutions were prewarmed.
(i) The plasminogen and ketoaldehyde were kept for
1-2 seconds before the blood plasma was added.

[4] = tested on: blood coagulation (normal plasma); assay: Blood coagulation (ii)(b), normal plasma; assay type: biochemical, human
Method: as §1, §2
(ii) The plasminogen and KA were incubated for
varying time before the blood plasma was added.
(b) with normal plasma: clotting time = 11. 7 sec

Aspergillus niger = assay: Inhibition of proliferation of molds, disk assay; assay type: cell-based; set-up: unit not given here; conditions: 40 hrs
Method: (§3) (1) Stock solutions in 26% 2 popanediol:
(§4) (3) Assay: The microorganisms were grown in Saburand's dextrose agar (Scott) at 35 C for stock cultures. For assay the spores were plated on Mueller-Hilton agar plates (7cm dia). The test compounds were applied to the plates on sensi disks (6 mm dia, Whatmann #17 paper) in volumes of 10, 20, 30, 40 microliter made up to 40 plating volume of microliter with the solvent. The plates were incubated at room temperature and in the dark for 40 hrs. The diameter of the inhibition ring around the sensi disks were measured.

Penicillum notatum [5] = assay: Inhibition of proliferation of molds, disk assay; assay type: cell-based; set-up: unit not given here; conditions: 40 hrs
Method: as §3, §4

Penicillum notatum [6] = assay: Inhibition of proliferation of molds, disk assay; assay type: cell-based; conditions: 8 days; for persistence of inhibition rings: highest concentration; for spore formation / mycelium development in second ring: penicillin plate
[7] = tested on: implantation of fertilized mouse eggs; assay: Preventing pregnancy in mice; assay type: in vivo
Method: Six 5 month old female CD-1 mice were injected intraperitoneally with N-1 hydroxy acetonyl maleimide for 12 days (50 microgram/ 20 g mice in saline: max volume 0.6 ml/A/D). Another group of the same mice were injected intraperitoneally with saline for 12 days (0.4ml). this second group of mice served as the control.
Two experienced males were introduced to each group of females and kept together for 8 days during which time the females received their daily injection. Copulation plugs were seen on each female by the 12th day of injection, and signs of pregnancy were seen on the control females on the 15-16th day of the experiment. The females delivered on 20-23 (control) and 24-27th (treated) day respectively (Table 3).
The experiment was repeated with the same females two months later, except that females of the control group were assigned to the test group, while females of the test group were reassigned to the control group. […] The control group delivered 102 pups (T/C =100%).

skin graft rejection = assay: Combatting rejection mechanism: orthotopic skin transplants between Swiss albino and C3HStCrl mice; assay type: in vivo
Method: The experiments described here were performed on random-bred Swiss albino mice (white, females, average body weight 26±3 g; Charles River CD-1-strain) and inbred C3HStCrl mice (cinnamon gray, females, average body weight […]; Charles River pedigreed breeders from L.C. Strong Foundation) and othotopic skin transplants were made in both ways, that is, white to gray and gray to white.
Standard transplantation technique (Billingham, R.E. and W.K. Silvers in Transplantation of Tissues and Cells, The Wistar Institute Press, Philadelphia, p. 8, (1961)) was utilized: From nembutal anesthetized animals 4-6 "pinch" -grafts (full thickness, 3-4 mm in diameter) of the close clipped and sterilized skin were collected from the thorax and immediately transplanted. The grafts were positioned in the "beds" (in place of the pinch-graft) and were held in position by tulle gras (vaseline-impregnated gauze) and by plaster-of-Paris impregnated bandage around the thorax.
The bandages were removed on the 6-9th day after the transplantation and the future development of the grafts was followed by macroscopical observations.
a. Animals were treated for 10 days with the composition before grafts were exchanged and treatment was discontinued on the day of transplantation.
b. Animals were not treated before the grafts were exchanged but the treatment started on the day of transplantation and continued for 10 days.
c. Animals were treated for 10 days with the drug before the grafts were exchanged and the treatment schedule was continued for 25 days after the transplantation.
+Treatment: daily injection with 3.744 mg/kg methylglyoxalmalcimide in 1.

[8] = 10x diluted, incubation time 10 seconds
[9] = 20x diluted, incubation time 30 seconds
[10] = ip, 50 microgram/20 g mice, 12 females

## Nc1nc(=O)[nH]cc1F [5FC, 5 fluorocytosine, reference compound]
Candida albicans [1]; 5 μliter, 24 hours (*)
  inhibition diameters: 33 mm
Candida albicans [1]; 10 μliter, 24 hours (*)
  inhibition diameters: 45 mm
Candida albicans [1]; 20 μliter, 24 hours (*)
  inhibition diameters: 50 mm
Candida albicans [1]; 50 μliter, 24 hours (*)
  inhibition diameters: 55 mm
Candida albicans [2]
  duration of action against Candida: shortlived action
  toxicity to the host: low toxicity to the host

## C[C@@H]1[C@H](O)[C@@H](C)/C=C/C=C/C=C/C=C/C=C/C=C/C=C/[C@H](O[C@@H]2O[C@H](C)[C@@H](O)[C@H](N)[C@@H]2O)C[C@@H]2O[C@](O)(C[C@@H](O)C[C@@H](O)[C@H](O)CC[C@@H](O)C[C@@H](O)CC(=O)O[C@H]1C)C[C@H](O)[C@H]2C(=O)O [AMP-B, amphotericin-B, reference compound]
Candida albicans [1]; 20 μliter, 24 hours (*)
  inhibition diameters: 2 mm
Candida albicans [1]; 50 μliter, 24 hours (*)
  inhibition diameters: 5 mm

## CC(=O)CC(=O)C=O [AcMG, 3-acetylmethylglyoxal]
Candida albicans [1]; 10 μliter, 24 hours (*)
  inhibition diameters: 18 mm
Candida albicans [1]; 10 μliter, 48 hours (**)
  inhibition diameters: 11 mm
Candida albicans [1]; 20 μliter, 24 hours (*)
  inhibition diameters: 31 mm
Candida albicans [1]; 20 μliter, 48 hours (**)
  inhibition diameters: 24 mm
Candida albicans [1]; 50 μliter, 24 hours (*)
  inhibition diameters: 34 mm
Candida albicans [1]; 50 μliter, 48 hours (**)
  inhibition diameters: 30 mm
C. albicans
  inhibition diameters: 25.3 mm
[3]
  d % (clotting activity): 28%
  coagulation time: 21.5 s
  clot: hard
[4]; incubation time 120 seconds
  clotting time: 13.9 s
  d%: 78%

## O=CC(=O)CCl [CMG, chloromethylglyoxal]
Aspergillus niger; 10 microliter
  diameter of inhibition ring: 8
Aspergillus niger; 20 microliter
  diameter of inhibition ring: 11
Aspergillus niger; 30 microliter
  diameter of inhibition ring: 17
Aspergillus niger; 40 microliter
  diameter of inhibition ring: 22
Penicillum notatum [5]; 10 microliter
  diameter of inhibition ring: 8
Penicillum notatum [5]; 20 microliter
  diameter of inhibition ring: 10
Penicillum notatum [5]; 30 microliter
  diameter of inhibition ring: 12
Penicillum notatum [5]; 40 microliter
  diameter of inhibition ring: 14
Candida albicans [1]; 10 μliter, 24 hours (*)
  inhibition diameters: 7 mm
Candida albicans [1]; 20 μliter, 24 hours (*)
  inhibition diameters: 21 mm
Candida albicans [1]; 20 μliter, 48 hours (**)
  inhibition diameters: 10 mm
Candida albicans [1]; 50 μliter, 24 hours (*)
  inhibition diameters: 33 mm
Candida albicans [1]; 50 μliter, 48 hours (**)
  inhibition diameters: 31 mm
C. albicans
  inhibition diameters: 26.6 mm
[3]
  d % (clotting activity): infinite
  coagulation time: > 200 s
  clot: no
  anti-coagulant effectiveness: most effective anti-coagulants
[4]; [8]
  clotting time: 13.5 s
  d%: 37%
[4]; incubation time 15 seconds
  clotting time: 19.4 s
  d%: 33%
[4]; incubation time 100 seconds
  clotting time: > 178.0 s
Penicillum notatum [6]
  persistence of inhibition rings: remained unchanged
  spore formation / mycelium development in second ring: spore formation in this area was inhibited while mycelium development was not

## O=CC(=O)C(Cl)Cl [DCMG, 3,3-dichloromethylglyoxal]
Aspergillus niger; 10 microliter
  diameter of inhibition ring: 10
Aspergillus niger; 20 microliter
  diameter of inhibition ring: 12
Aspergillus niger; 30 microliter
  diameter of inhibition ring: 14
Aspergillus niger; 40 microliter
  diameter of inhibition ring: 15
Penicillum notatum [5]; 10 microliter
  diameter of inhibition ring: 8
Penicillum notatum [5]; 20 microliter
  diameter of inhibition ring: 10
Penicillum notatum [5]; 30 microliter
  diameter of inhibition ring: 13
Penicillum notatum [5]; 40 microliter
  diameter of inhibition ring: 16
Candida albicans [1]; 10 μliter, 24 hours (*)
  inhibition diameters: 8 mm
Candida albicans [1]; 20 μliter, 24 hours (*)
  inhibition diameters: 20 mm
Candida albicans [1]; 20 μliter, 48 hours (**)
  inhibition diameters: 17 mm
Candida albicans [1]; 50 μliter, 24 hours (*)
  inhibition diameters: 32 mm
Candida albicans [1]; 50 μliter, 48 hours (**)
  inhibition diameters: 29 mm
C. albicans
  inhibition diameters: 23.0 mm
[3]
  d % (clotting activity): infinite
  coagulation time: > 200 s
  clot: no
  anti-coagulant effectiveness: most effective anti-coagulants
[4]; [8]
  clotting time: 12.9 s
[4]; [9]
  clotting time: 20.0 s
  d%: 14.7%
[4]; incubation time 15 seconds
  clotting time: > 170.0 s
Penicillum notatum [6]
  persistence of inhibition rings: remained unchanged
  spore formation / mycelium development in second ring: spore formation in this area was inhibited while mycelium development was not

## CC(=O)CC(=O)C(=O)O [DOV, 2,4-dioxovaleric acid, reference compound]
Candida albicans [1]; 5-50 μliter, 24 hours (*)
  inhibition diameters, in words: negligible

## CCOC(C)C(=O)C=O (centres unmarked) [KE, kethoxal, reference compound]
Candida albicans [1]; 10 μliter, 24 hours (*)
  inhibition diameters: 7 mm
Candida albicans [1]; 20 μliter, 24 hours (*)
  inhibition diameters: 17 mm
Candida albicans [1]; 20 μliter, 48 hours (**)
  inhibition diameters: 16 mm
Candida albicans [1]; 50 μliter, 24 hours (*)
  inhibition diameters: 25 mm
Candida albicans [1]; 50 μliter, 48 hours (**)
  inhibition diameters: 24 mm

## O=C1C=CC(=O)N1 [MALI, maleimide, reference compound]
Candida albicans [1]; 5 μliter, 24 hours (*)
  inhibition diameters: 13 mm
Candida albicans [1]; 10 μliter, 24 hours (*)
  inhibition diameters: 21 mm
Candida albicans [1]; 10 μliter, 48 hours (**)
  inhibition diameters: 17 mm
Candida albicans [1]; 20 μliter, 24 hours (*)
  inhibition diameters: 29 mm
Candida albicans [1]; 20 μliter, 48 hours (**)
  inhibition diameters: 25 mm
Candida albicans [1]; 50 μliter, 24 hours (*)
  inhibition diameters: 30 mm
Candida albicans [1]; 50 μliter, 48 hours (**)
  inhibition diameters: 30 mm

## CC(=O)C(O)N1C(=O)C=CC1=O (centres unmarked) [MGMALI]
[7]; ip, 50 microgram/20 g mice
  I %: 89.7%
  T/C %: 10.3%
[7]; [10]
  delivered (pups): 11
  females that delivered: 2 female
[7]; second experiment, groups exchanged, two months later
  inhibition of delivery: 83.3%
[7]; treated females, control 20-23
  day of delivery: 24 to 27 days
Candida albicans [1]; 10 μliter, 24 hours (*)
  inhibition diameters: 8 mm
Candida albicans [1]; 20 μliter, 24 hours (*)
  inhibition diameters: 18 mm
Candida albicans [1]; 20 μliter, 48 hours (**)
  inhibition diameters: 17 mm
Candida albicans [1]; 50 μliter, 24 hours (*)
  inhibition diameters: 22 mm
Candida albicans [1]; 50 μliter, 48 hours (**)
  inhibition diameters: 22 mm

## O=CC(=O)Cc1ccccc1 [PMG, 3-Phenylmethylglyoxal]
[3]
  d % (clotting activity): 10.5%
  coagulation time: 36 s
  clot: hard
[4]; incubation time 120 seconds
  clotting time: 21.2 s
  d%: 28%

## methylglyoxalmalcimide
Skin graft rejection; (a) pretreatment 10 days, printed g to 2, 31-40 days, cumulative
  rejection: 100%
Skin graft rejection; (a) pretreatment 10 days, w to g, 26-30 days, cumulative
  rejection: 30%
Skin graft rejection; (b) post graft treatment 10 days, printed g to 2, 31-40 days, cumulative
  rejection: 10%
Skin graft rejection; (b) post graft treatment 10 days, w to g, 26-31 days, cumulative
  rejection: 10%
Skin graft rejection; (c) pretreatment 10 days and post graft 25 days, g to w, 31-40 days, cumulative
  rejection: 10%
Skin graft rejection; (c) pretreatment 10 days and post graft 25 days, w to g, 26-30 days
  rejection: No rejection
